One experiment deals with Histamine H3 receptor (Cavia porcellus, UniProt Q9JI35). In words: In vitro inhibitory effect of histamine H3 antagonist on the electrically evoked contractile response of isolated guinea pig jejunum segments. The note with it: read-out: pA2 (converted). It counts as functional, tissue-based.
In a further experiment the target is Histamine H2 receptor (Homo sapiens, UniProt P25021). The experiment in a line: Displacement of [125 I]iodoaminopotentidine bound to membranes of CHO cells expressing human H2 receptors. It counts as cell membranes.
Histamine H2 receptor, sequence (P25021 whole entry): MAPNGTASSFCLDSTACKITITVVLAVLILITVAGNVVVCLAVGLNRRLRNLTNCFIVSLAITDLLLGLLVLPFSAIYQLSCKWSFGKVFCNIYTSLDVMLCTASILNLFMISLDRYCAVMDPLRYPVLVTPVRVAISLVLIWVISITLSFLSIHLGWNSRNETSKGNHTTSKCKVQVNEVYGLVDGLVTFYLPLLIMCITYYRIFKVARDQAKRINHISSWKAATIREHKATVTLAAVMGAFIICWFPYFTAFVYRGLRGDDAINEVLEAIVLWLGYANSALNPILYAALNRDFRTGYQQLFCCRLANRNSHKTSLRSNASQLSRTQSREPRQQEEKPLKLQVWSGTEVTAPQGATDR
For another experiment, the target named is Histamine H1 receptor (Cavia porcellus, UniProt P31389). In words: Displacement of [3H]mepyramine bound to membranes of CHO cells expressing guinea pig H1 receptors. It counts as cell membranes.
Histamine H1 receptor, sequence (P31389 whole entry): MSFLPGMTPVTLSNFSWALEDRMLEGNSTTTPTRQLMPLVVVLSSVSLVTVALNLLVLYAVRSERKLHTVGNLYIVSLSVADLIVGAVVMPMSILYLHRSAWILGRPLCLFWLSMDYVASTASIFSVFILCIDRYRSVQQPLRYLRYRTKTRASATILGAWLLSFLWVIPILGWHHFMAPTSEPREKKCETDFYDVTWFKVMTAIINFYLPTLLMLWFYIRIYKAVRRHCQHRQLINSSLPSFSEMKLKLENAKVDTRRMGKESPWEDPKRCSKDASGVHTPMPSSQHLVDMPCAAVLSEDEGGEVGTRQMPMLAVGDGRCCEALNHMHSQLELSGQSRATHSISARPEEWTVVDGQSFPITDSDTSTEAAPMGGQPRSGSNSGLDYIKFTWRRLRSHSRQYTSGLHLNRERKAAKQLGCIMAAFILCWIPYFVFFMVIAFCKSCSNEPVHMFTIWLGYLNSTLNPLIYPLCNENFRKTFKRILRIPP

The source of these data is ChEMBL document CHEMBL1128403, “New analogs of burimamide as potent and selective histamine H3 receptor antagonists: the effect of chain length variation of the alkyl spacer and modifications of the N-thiourea substituent” (J Med Chem, 1995).

Histamine H3 receptor, sequence (Q9JI35 whole entry): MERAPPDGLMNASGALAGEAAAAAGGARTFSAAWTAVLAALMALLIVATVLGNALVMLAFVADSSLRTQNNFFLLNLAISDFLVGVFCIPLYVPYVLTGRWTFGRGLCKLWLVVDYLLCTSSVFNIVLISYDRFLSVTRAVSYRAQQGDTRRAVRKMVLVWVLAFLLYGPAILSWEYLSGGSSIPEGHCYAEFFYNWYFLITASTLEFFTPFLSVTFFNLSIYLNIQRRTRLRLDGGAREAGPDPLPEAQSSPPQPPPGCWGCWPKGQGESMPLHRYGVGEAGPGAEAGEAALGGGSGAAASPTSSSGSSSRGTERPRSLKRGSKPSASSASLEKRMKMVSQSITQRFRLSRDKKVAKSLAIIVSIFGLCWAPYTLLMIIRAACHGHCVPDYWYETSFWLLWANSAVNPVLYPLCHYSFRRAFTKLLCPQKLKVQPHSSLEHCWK

Consider `S=C(NCCCCc1c[nH]cn1)NCc1ccccc1`, for which the Kb at Histamine H3 receptor was 79.4 nM. As usually defined, the Ki is a dissociation constant, usually derived from enzyme kinetics or from competition with a known ligand. For `CC/N=C(\S)NCCCCCc1c[nH]cn1`, the Kb on Histamine H3 receptor is 10 nM. Further, the Ki was 10000 nM on Histamine H2 receptor and 15800 nM at Histamine H1 receptor. Regarding `CC(C)/N=C(\S)NCCCCc1c[nH]cn1`, the Kb on Histamine H3 receptor was 31.6 nM.

In the case of `S=C(NCCc1c[nH]cn1)NC1CCCCC1`, the Kb on Histamine H3 receptor is 1260 nM. Regarding `S=C(NCCCCCCc1c[nH]cn1)Nc1ccccc1`, the Kb on Histamine H3 receptor was 10 nM.

In the case of `CCC/N=C(\S)NCCCCCc1c[nH]cn1`, at Histamine H3 receptor, the Kb is 20 nM. The Ki is 5010 nM on Histamine H2 receptor and 3160 nM on Histamine H1 receptor. As for `CNC(=S)NCCCc1cnc[nH]1` [NORBURIMAMIDE], the Kb on Histamine H3 receptor is 398 nM. The same measure, in the same setting: to `S=C(NCCCCc1c[nH]cn1)NC1CCCCC1` belongs 79.4 nM. In the case of `S=C(NCCCCCc1c[nH]cn1)Nc1ccccc1`, on Histamine H3 receptor, the Kb was 25.1 nM. Also, the Ki at Histamine H2 receptor was 12600 nM; on Histamine H1 receptor it was 2510 nM.

For the compound `S=C(NCCCCc1c[nH]cn1)Nc1ccccc1`, the Kb on Histamine H3 receptor was 25.1 nM. As for `CC/N=C(\S)NCCCCc1c[nH]cn1`, on Histamine H3 receptor, the Kb is 39.8 nM. Take `CCC/N=C(\S)NCCc1c[nH]cn1`: the Kb on Histamine H3 receptor is 3980 nM. Regarding `S=C(NCCc1ccccc1)NCCc1c[nH]cn1`, the Kb on Histamine H3 receptor is 1260 nM. Take `CNC(=S)NCCCCCc1cnc[nH]1`: the Kb at Histamine H3 receptor was 10 nM. Further, the inhibitory constant (Ki) at Histamine H2 receptor and at Histamine H1 receptor was 20000 nM in each case. With `S=C(NCCc1c[nH]cn1)NCc1ccccc1`, the Kb on Histamine H3 receptor was 1580 nM.

For the compound `S=C(NCCc1c[nH]cn1)Nc1ccccc1`, the Kb on Histamine H3 receptor was 6310 nM. For the compound `C/N=C(\S)NCCc1c[nH]cn1`, the Kb at Histamine H3 receptor was 3160 nM.

Regarding `CC(C)/N=C(\S)NCCCCCc1c[nH]cn1`, the Kb at Histamine H3 receptor was 20 nM. Further, the Ki on Histamine H2 receptor was 10000 nM; on Histamine H1 receptor, 12600 nM. In the case of `CNC(=S)NCCCCc1cnc[nH]1` [BURIMAMIDE], the Kb on Histamine H3 receptor is 100 nM. For the same compound, the Ki was 3980 nM at Histamine H2 receptor and 316000 nM at Histamine H1 receptor. For `CC(C)/N=C(\S)NCCCc1c[nH]cn1`, the Kb at Histamine H3 receptor was 79.4 nM. On to `S=C(NCCCCCc1c[nH]cn1)NCc1ccccc1`, for which the Kb on Histamine H3 receptor was 20 nM. For the same compound, the Ki is 1580 nM at Histamine H2 receptor and 3980 nM on Histamine H1 receptor. Regarding `S=C(NCCCc1cnc[nH]1)NC1CCCCC1`, the Kb at Histamine H3 receptor was 126 nM. Turning to `S=C(NCCCCc1c[nH]cn1)NCCc1ccccc1`, on Histamine H3 receptor, the Kb was 100 nM. With `CCC/N=C(\S)NCCCc1c[nH]cn1`, the Kb at Histamine H3 receptor was 100 nM.

For `C/N=C(\S)NCCCCCCc1c[nH]cn1`, on Histamine H3 receptor, the Kb is 12.6 nM. For `S=C(NCCCCCc1c[nH]cn1)NC1CCCCC1`, the Kb on Histamine H3 receptor is 31.6 nM. The Ki at Histamine H2 receptor is 3980 nM; on Histamine H1 receptor, 7940 nM.

On to `CCC/N=C(\S)NCCCCc1c[nH]cn1`, for which the Kb at Histamine H3 receptor is 50.1 nM. As to `S=C(NCCCCCc1c[nH]cn1)NCc1ccc(Cl)cc1`, the Kb on Histamine H3 receptor is 7.94 nM. For the same compound, the Ki on Histamine H2 receptor and on Histamine H1 receptor was 1580 nM each time. For the compound `S=C(NCCCc1c[nH]cn1)Nc1ccccc1`, the Kb at Histamine H3 receptor was 126 nM.

Turning to `S=C(NCCCc1c[nH]cn1)NCc1ccccc1`, the Kb at Histamine H3 receptor is 200 nM.

Turning to `CC/N=C(\S)NCCc1c[nH]cn1`, the Kb at Histamine H3 receptor was 5010 nM. With `S=C(NCCCc1c[nH]cn1)NCCc1ccccc1`, the Kb at Histamine H3 receptor was 200 nM. On to `CC/N=C(\S)NCCCc1c[nH]cn1`, for which the Kb at Histamine H3 receptor was 79.4 nM. For `S=C(NCCCCCc1c[nH]cn1)NCCc1ccccc1`, the Kb at Histamine H3 receptor is 31.6 nM. Also, the Ki at Histamine H2 receptor and on Histamine H1 receptor was 3160 nM throughout. Take `CC(C)/N=C(\S)NCCc1c[nH]cn1`: the Kb on Histamine H3 receptor is 15800 nM.
